Experimental data published in US20240368135A1 (VERTEX PHARMACEUTICALS INCORPORATED, priority 2021, published 2024).
pIC50: −log10 of the molar value. Read-outs that look alike come from different tables or passages of the source.

Target: human NaV 1.8 (Homo sapiens, UniProt Q9Y5Y9)
Experiment: E-VIPR assay detecting and measuring NaV inhibition properties
Type: cell-based
Conditions: HEK cells expressing truncated human NaV 1.8
How it was run: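 HEK cells expressing truncated, fully active human NaV1.8, with KIR2.1 BacMam co-transduction, were loaded with CC2-DMPE/DiSBAC6(3) voltage-sensing dyes for 20 min at room temperature. Compounds were tested in 11-point 3-fold dilutions (300 nM top final), optionally with 25% human serum, under electrical stimulation with FRET read-out.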

[1] = no human serum, read-out: IC50 in the E-VIPR Assay

Sequence of human NaV 1.8 (Q9Y5Y9 126-399 limits assumed): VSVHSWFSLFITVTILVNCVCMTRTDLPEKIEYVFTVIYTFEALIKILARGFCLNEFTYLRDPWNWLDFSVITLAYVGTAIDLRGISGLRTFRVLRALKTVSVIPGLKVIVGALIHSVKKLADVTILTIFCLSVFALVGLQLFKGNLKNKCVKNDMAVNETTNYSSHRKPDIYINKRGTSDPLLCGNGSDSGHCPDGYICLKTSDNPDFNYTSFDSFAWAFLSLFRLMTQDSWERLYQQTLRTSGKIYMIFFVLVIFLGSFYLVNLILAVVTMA
Sequence of human NaV 1.8 (Q9Y5Y9 660-890 limits assumed): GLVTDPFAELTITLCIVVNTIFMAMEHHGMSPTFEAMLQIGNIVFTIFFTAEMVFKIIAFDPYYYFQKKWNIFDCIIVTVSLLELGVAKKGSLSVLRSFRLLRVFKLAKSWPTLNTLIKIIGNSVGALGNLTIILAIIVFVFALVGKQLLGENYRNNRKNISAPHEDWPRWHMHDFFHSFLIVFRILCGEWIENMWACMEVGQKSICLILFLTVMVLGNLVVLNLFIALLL
Sequence of human NaV 1.8 (Q9Y5Y9 1148-1722 limits assumed): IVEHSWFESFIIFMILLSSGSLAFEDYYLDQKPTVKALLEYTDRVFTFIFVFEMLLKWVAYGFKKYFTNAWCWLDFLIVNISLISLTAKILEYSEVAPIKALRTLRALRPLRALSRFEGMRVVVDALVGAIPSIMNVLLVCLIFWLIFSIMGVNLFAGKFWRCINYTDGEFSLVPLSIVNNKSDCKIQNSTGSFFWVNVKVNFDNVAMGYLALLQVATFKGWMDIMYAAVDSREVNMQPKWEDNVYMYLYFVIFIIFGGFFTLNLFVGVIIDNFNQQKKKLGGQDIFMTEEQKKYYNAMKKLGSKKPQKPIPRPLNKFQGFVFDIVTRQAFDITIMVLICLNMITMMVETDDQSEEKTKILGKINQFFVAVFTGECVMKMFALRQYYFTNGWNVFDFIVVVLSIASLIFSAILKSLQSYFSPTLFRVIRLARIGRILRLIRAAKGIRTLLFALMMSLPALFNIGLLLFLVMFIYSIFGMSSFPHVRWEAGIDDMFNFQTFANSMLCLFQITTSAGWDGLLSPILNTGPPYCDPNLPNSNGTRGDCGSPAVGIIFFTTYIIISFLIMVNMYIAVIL

| pIC50 [1] | pIC50 (in the presence of human serum (compound numbers followed by *), read-out: IC50 in the E-VIPR Assay, performed in the presence of human serum) | SMILES |
| --- | --- | --- |
|  | ≤ 6.00 | C[C@@H]1[C@H](c2ccc(F)c(F)c2OC(F)F)[C@@H](C(=O)Nc2ccnc(CCO)c2)O[C@]1(C)C(F)(F)F (single isomer, unassigned) [Compound 457] |
| ≤ 6.00 |  | C[C@@H]1[C@H](c2ccc(F)c(F)c2OC(F)F)[C@@H](C(=O)Nc2ccc(CCO)nc2)O[C@]1(C)C(F)(F)F (single isomer, unassigned) [Compound 459] |
| 7.00 to 8.00 |  | C[C@H]1[C@@H](c2ccc(F)c(F)c2OC(F)F)[C@H](C(=O)Nc2ccc(CCO)nc2)O[C@@]1(C)C(F)(F)F (single isomer, unassigned) [Compound 460] |
| ≤ 6.00 |  | C[C@@H]1[C@H](c2ccc(F)c(F)c2OC(F)F)[C@@H](C(=O)Nc2ccc(CC(C)(C)O)nc2)O[C@]1(C)C(F)(F)F (single isomer, unassigned) [Compound 461] |
| 6.00 to 7.00 |  | C[C@H]1[C@@H](c2ccc(F)c(F)c2OC(F)F)[C@H](C(=O)Nc2ccc(CC(C)(C)O)nc2)O[C@@]1(C)C(F)(F)F (single isomer, unassigned) [Compound 462] |
| > 8.00 |  | COc1c([C@H]2[C@H](C(=O)Nc3ccnc(N4CC(N)CC4=O)c3)O[C@@](C)(C(F)(F)F)[C@H]2C)ccc(F)c1F (single isomer, unassigned) [Compound 495, rel-(2R*,3S*,4S*,5R*)-N-(2-(4-amino-2-oxopyrrolidin-1-yl)pyridin-4-yl)-3-(3,4-difluoro-2-methoxyphenyl)-4,5-dimethyl-5-(trifluoromethyl)tetrahydrofuran-2-carboxamide] |
| 7.00 to 8.00 |  | COc1c([C@H]2[C@H](C(=O)Nc3ccnc(N4CC(N)CC4=O)c3)O[C@@](C)(C(F)(F)F)[C@H]2C)ccc(F)c1F (single isomer, unassigned) [Compound 496, rel-(2R*,3S*,4S*,5R*)-N-(2-(4-amino-2-oxopyrrolidin-1-yl)pyridin-4-yl)-3-(3,4-difluoro-2-methoxyphenyl)-4,5-dimethyl-5-(trifluoromethyl)tetrahydrofuran-2-carboxamide] |
| 7.00 to 8.00 |  | COc1c([C@H]2[C@H](C(=O)Nc3ccnc(N4CCC(N)C4=O)c3)O[C@@](C)(C(F)(F)F)[C@H]2C)ccc(F)c1F (single isomer, unassigned) [Compound 497, rel-(2R*,3S*,4S*,5R*)-N-(2-(3-amino-2-oxopyrrolidin-1-yl)pyridin-4-yl)-3-(3,4-difluoro-2-methoxyphenyl)-4,5-dimethyl-5-(trifluoromethyl)tetrahydrofuran-2-carboxamide] |
| 7.00 to 8.00 |  | CNC1CC(=O)N(c2cc(NC(=O)[C@@H]3O[C@@](C)(C(F)(F)F)[C@@H](C)[C@H]3c3ccc(F)c(F)c3OC)ccn2)C1 (single isomer, unassigned) [Compound 499, rel-(2R*,3S*,4S*,5R*)-3-(3,4-difluoro-2-methoxyphenyl)-4,5-dimethyl-N-(2-(4-(methylamino)-2-oxopyrrolidin-1-yl)pyridin-4-yl)-5-(trifluoromethyl)tetrahydrofuran-2-carboxamide] |
| 7.00 to 8.00 |  | CNC1CCN(c2cc(NC(=O)[C@@H]3O[C@@](C)(C(F)(F)F)[C@@H](C)[C@H]3c3ccc(F)c(F)c3OC)ccn2)C1=O (single isomer, unassigned) [Compound 501, rel-(2R*,3S*,4S*,5R*)-3-(3,4-difluoro-2-methoxyphenyl)-4,5-dimethyl-N-(2-(3-(methylamino)-2-oxopyrrolidin-1-yl)pyridin-4-yl)-5-(trifluoromethyl)tetrahydrofuran-2-carboxamide] |

The remaining lines, values behind:

| SMILES | pIC50 [1] | pIC50 (in the presence of human serum (compound numbers followed by *), read-out: IC50 in the E-VIPR Assay, performed in the presence of human serum) |
| --- | --- | --- |
| COc1c([C@H]2[C@H](C(=O)Nc3cnc4c(c3)CCC4O)O[C@@](C)(C(F)(F)F)[C@H]2C)ccc(F)c1F (single isomer, unassigned) [Compound 433, rel-(2R*,3S*,4S*,5R*)-3-(3,4-difluoro-2-methoxyphenyl)-N-(7-hydroxy-6,7-dihydro-5H-cyclopenta[b]pyridin-3-yl)-4,5-dimethyl-5-(trifluoromethyl)tetrahydrofuran-2-carboxamide] | 6.00 to 7.00 |  |
| COc1c([C@H]2[C@H](C(=O)Nc3cnc4c(c3)C(O)CC4)O[C@@](C)(C(F)(F)F)[C@H]2C)ccc(F)c1F (single isomer, unassigned) [Compound 434, rel-(2R*,3S*,4S*,5R*)-3-(3,4-difluoro-2-methoxyphenyl)-N-(5-hydroxy-6,7-dihydro-5H-cyclopenta[b]pyridin-3-yl)-4,5-dimethyl-5-(trifluoromethyl)tetrahydrofuran-2-carboxamide] | 6.00 to 7.00 |  |
| COc1c([C@H]2[C@H](C(=O)Nc3ccc(C(F)CO)nc3)O[C@@](C)(C(F)(F)F)[C@H]2C)ccc(F)c1F (single isomer, unassigned) [Compound 438, rel-(2R*,3S*,4S*,5R*)-3-(3,4-difluoro-2-methoxyphenyl)-N-(6-(1-fluoro-2-hydroxyethyl)pyridin-3-yl)-4,5-dimethyl-5-(trifluoromethyl)tetrahydrofuran-2-carboxamide] | 7.00 to 8.00 |  |
| COc1c([C@H]2[C@H](C(=O)Nc3ccnc(C(F)CO)c3)O[C@@](C)(C(F)(F)F)[C@H]2C)ccc(F)c1F (single isomer, unassigned) [Compound 439, rel-(2R*,3S*,4S*,5R*)-3-(3,4-difluoro-2-methoxyphenyl)-N-(2-(1-fluoro-2-hydroxyethyl)pyridin-4-yl)-4,5-dimethyl-5-(trifluoromethyl)tetrahydrofuran-2-carboxamide] | > 8.00 |  |
| CNS(=O)(=O)c1cc(NC(=O)C2OC(C)(C(F)(F)F)C(C)C2c2ccc(F)c(F)c2OC)ccn1 (single isomer, unassigned) [Compound 455, 3-(3,4-difluoro-2-methoxy-phenyl)-4,5-dimethyl-N-[2-(methylsulfamoyl)-4-pyridyl]-5-(trifluoromethyl)tetrahydrofuran-2-carboxamide] | 6.00 to 7.00 |  |
| CNS(=O)(=O)c1cc(NC(=O)C2OC(C)(C(F)(F)F)C(C)C2c2ccc(F)c(F)c2OC)ccn1 (single isomer, unassigned) [Compound 456, 3-(3,4-difluoro-2-methoxy-phenyl)-4,5-dimethyl-N-[2-(methylsulfamoyl)-4-pyridyl]-5-(trifluoromethyl)tetrahydrofuran-2-carboxamide] | > 8.00 |  |
| C[C@H]1[C@@H](c2ccc(F)c(F)c2OC(F)F)[C@H](C(=O)Nc2ccnc(CCO)c2)O[C@@]1(C)C(F)(F)F (single isomer, unassigned) [Compound 458] | > 8.00 |  |
| C[C@@H]1[C@H](c2ccc(F)c(F)c2OC(F)F)[C@@H](C(=O)Nc2ccnc(CC(C)(C)O)c2)O[C@]1(C)C(F)(F)F (single isomer, unassigned) [Compound 463] | ≤ 6.00 |  |
| C[C@H]1[C@@H](c2ccc(F)c(F)c2OC(F)F)[C@H](C(=O)Nc2ccnc(CC(C)(C)O)c2)O[C@@]1(C)C(F)(F)F (single isomer, unassigned) [Compound 464] | 7.00 to 8.00 |  |
| COc1c([C@H]2[C@H](C(=O)Nc3ccnc(N4C[C@H]5C[C@H](N5)C4=O)c3)O[C@@](C)(C(F)(F)F)[C@H]2C)ccc(F)c1F (single isomer, unassigned) [Compound 491, rel-(2R*,3S*,4S*,5R*)-3-(3,4-difluoro-2-methoxyphenyl)-4,5-dimethyl-N-(2-((1S,5R)-2-oxo-3,6-diazabicyclo[3.1.1]heptan-3-yl)pyridin-4-yl)-5-(trifluoromethyl)tetrahydrofuran-2-carboxamide] | 7.00 to 8.00 |  |
| COc1c([C@H]2[C@H](C(=O)Nc3ccnc(N4C[C@@H]5C[C@@H](N5)C4=O)c3)O[C@@](C)(C(F)(F)F)[C@H]2C)ccc(F)c1F (single isomer, unassigned) [Compound 492, rel-(2R*,3S*,4S*,5R*)-3-(3,4-difluoro-2-methoxyphenyl)-4,5-dimethyl-N-(2-((1R,5S)-2-oxo-3,6-diazabicyclo[3.1.1]heptan-3-yl)pyridin-4-yl)-5-(trifluoromethyl)tetrahydrofuran-2-carboxamide] | 7.00 to 8.00 |  |
| COc1c([C@H]2[C@H](C(=O)Nc3ccnc(N4C[C@H]5CC[C@H](N5)C4=O)c3)O[C@@](C)(C(F)(F)F)[C@H]2C)ccc(F)c1F (single isomer, unassigned) [Compound 493, rel-(2R*,3S*,4S*,5R*)-3-(3,4-difluoro-2-methoxyphenyl)-4,5-dimethyl-N-(2-((1S,5R)-2-oxo-3,8-diazabicyclo[3.2.1]octan-3-yl)pyridin-4-yl)-5-(trifluoromethyl)tetrahydrofuran-2-carboxamide] | 7.00 to 8.00 |  |
| COc1c([C@H]2[C@H](C(=O)Nc3ccnc(N4C[C@@H]5CC[C@@H](N5)C4=O)c3)O[C@@](C)(C(F)(F)F)[C@H]2C)ccc(F)c1F (single isomer, unassigned) [Compound 494, rel-(2R*,3S*,4S*,5R*)-3-(3,4-difluoro-2-methoxyphenyl)-4,5-dimethyl-N-(2-((1R,5S)-2-oxo-3,8-diazabicyclo[3.2.1]octan-3-yl)pyridin-4-yl)-5-(trifluoromethyl)tetrahydrofuran-2-carboxamide] | 7.00 to 8.00 |  |
| COc1c([C@H]2[C@H](C(=O)Nc3ccnc(N4C[C@H]5CC[C@@H](C4=O)N5C)c3)O[C@@](C)(C(F)(F)F)[C@H]2C)ccc(F)c1F (single isomer, unassigned) [Compound 503, rel-(2R*,3S*,4S*,5R*)-3-(3,4-difluoro-2-methoxyphenyl)-4,5-dimethyl-N-(2-((1S,5R)-8-methyl-2-oxo-3,8-diazabicyclo[3.2.1]octan-3-yl)pyridin-4-yl)-5-(trifluoromethyl)tetrahydrofuran-2-carboxamide] | > 8.00 |  |
| COc1c([C@H]2[C@H](C(=O)Nc3ccnc(N4C[C@@H]5CC[C@H](C4=O)N5C)c3)O[C@@](C)(C(F)(F)F)[C@H]2C)ccc(F)c1F (single isomer, unassigned) [Compound 504, rel-(2R*,3S*,4S*,5R*)-3-(3,4-difluoro-2-methoxyphenyl)-4,5-dimethyl-N-(2-((1R,5S)-8-methyl-2-oxo-3,8-diazabicyclo[3.2.1]octan-3-yl)pyridin-4-yl)-5-(trifluoromethyl)tetrahydrofuran-2-carboxamide] | 7.00 to 8.00 |  |
